Laboratory results reported in patent publication US12037344B2, “NLRP3 modulators” (INNATE TUMOR IMMUNITY, INC., priority 2018, dated 2024).
Like-named read-outs stand apart in the source and are kept apart here.

How the values were obtained:
[1] = tested on: THP-1 cells; test: Measurement of IL-1β production, hTRF protocol (second alternative procedure), THP-1 cells; format: cell-based, human; details: Homo sapiens
Method in brief: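 Compounds, dilution series starting at a final 10 μM, were incubated 2 hours at 37° C with PMA-differentiated THP-1 cells (50 ng/ml overnight; 50,000 cells/well, 2% FBS RPMI). Released IL-1β quantified in supernatant by hTRF kit with 1:40 antibody dilution, 4° C overnight, 665/615 nm ratio.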

[2] = molecular target: T1, TLR7 (Homo sapiens, UniProt Q9NYK1); test: In vitro human TLR7 binding reporter assay (HEK-Blue, NF-kB/AP1-inducible SEAP); format: cell-based; details: activity range class, read-out: TLR7 Agonist EC50
T1 construct: human HEK-Blue cells co-expressing a TLR7 or TLR8 gene
T1 sequence (Q9NYK1 27-1049): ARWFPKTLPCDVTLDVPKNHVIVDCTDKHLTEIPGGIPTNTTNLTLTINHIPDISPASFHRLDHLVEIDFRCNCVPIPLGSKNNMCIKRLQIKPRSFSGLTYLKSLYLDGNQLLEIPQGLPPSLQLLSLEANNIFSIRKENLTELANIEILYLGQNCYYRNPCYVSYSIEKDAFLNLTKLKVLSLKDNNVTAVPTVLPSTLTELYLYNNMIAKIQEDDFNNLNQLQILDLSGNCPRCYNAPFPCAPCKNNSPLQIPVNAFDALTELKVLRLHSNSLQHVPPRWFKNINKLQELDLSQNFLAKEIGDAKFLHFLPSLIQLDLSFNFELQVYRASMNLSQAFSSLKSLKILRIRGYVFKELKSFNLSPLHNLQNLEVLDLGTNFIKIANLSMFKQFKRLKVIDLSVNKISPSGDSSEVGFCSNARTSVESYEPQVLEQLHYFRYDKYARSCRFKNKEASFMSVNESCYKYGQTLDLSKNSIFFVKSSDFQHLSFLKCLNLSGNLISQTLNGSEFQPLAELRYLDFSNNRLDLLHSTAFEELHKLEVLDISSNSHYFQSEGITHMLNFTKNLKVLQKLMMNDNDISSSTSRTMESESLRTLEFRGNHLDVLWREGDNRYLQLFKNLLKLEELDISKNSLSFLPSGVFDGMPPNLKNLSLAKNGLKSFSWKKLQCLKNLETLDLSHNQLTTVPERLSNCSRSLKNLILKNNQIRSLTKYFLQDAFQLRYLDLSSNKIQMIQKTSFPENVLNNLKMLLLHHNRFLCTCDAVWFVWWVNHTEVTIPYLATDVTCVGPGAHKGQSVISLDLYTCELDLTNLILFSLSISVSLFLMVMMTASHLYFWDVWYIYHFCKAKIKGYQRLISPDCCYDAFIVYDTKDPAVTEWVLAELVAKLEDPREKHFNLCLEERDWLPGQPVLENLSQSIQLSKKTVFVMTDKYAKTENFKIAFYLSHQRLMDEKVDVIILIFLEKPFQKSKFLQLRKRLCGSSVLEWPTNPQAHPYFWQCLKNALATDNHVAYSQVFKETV
Method in brief: (§1)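 HEK-Blue cells expressing human TLR7 or TLR8 with NF-kB/AP1-inducible SEAP reporter, plated 24 h, then compound-treated 18 h at 37° C, 5% CO2. EC50 normalized to 100% Ymax set by 50 μM reference standard.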

[3] = molecular target: T2, TLR8 (Homo sapiens, UniProt Q9NR97); test: In vitro human TLR8 binding reporter assay (HEK-Blue, NF-kB/AP1-inducible SEAP); format: cell-based; details: activity range class, read-out: TLR8 Agonist EC50
T2 construct: human HEK-Blue cells co-expressing a TLR7 or TLR8 gene
T2 sequence (Q9NR97 27-1041): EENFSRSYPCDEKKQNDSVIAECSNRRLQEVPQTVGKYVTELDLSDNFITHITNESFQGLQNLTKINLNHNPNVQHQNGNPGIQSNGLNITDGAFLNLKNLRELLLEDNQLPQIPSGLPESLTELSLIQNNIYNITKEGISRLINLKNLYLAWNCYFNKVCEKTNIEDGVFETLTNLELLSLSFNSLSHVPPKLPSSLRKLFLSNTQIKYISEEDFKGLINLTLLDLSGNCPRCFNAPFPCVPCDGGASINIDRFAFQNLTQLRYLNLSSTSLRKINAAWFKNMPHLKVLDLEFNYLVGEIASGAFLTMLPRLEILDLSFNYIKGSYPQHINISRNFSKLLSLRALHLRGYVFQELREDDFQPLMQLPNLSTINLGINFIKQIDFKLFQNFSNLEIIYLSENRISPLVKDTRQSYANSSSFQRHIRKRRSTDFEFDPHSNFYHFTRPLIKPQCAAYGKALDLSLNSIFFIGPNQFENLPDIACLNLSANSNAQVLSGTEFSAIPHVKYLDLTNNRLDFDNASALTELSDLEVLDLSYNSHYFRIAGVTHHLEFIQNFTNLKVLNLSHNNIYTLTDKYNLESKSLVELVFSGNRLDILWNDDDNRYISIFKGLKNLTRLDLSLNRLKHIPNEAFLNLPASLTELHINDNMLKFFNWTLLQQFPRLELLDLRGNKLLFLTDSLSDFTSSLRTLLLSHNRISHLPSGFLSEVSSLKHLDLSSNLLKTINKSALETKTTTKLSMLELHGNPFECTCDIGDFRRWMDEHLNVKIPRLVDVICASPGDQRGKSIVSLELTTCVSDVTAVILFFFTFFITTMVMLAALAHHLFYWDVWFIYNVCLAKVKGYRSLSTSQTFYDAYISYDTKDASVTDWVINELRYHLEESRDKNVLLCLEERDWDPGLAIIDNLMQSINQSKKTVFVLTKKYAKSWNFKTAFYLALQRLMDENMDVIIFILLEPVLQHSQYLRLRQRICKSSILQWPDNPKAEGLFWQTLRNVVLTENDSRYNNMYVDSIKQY
Method in brief: as §1

[4] = THP-1, IL-1β production, human, read-out: NLRP3 hILIB EC50
[5] = THP-1, read-out: NLRP3 hILIB EC50

| EC50 [1, 4] | EC50 [2] | EC50 [3] | Compound | EC50 [1, 5] |
| --- | --- | --- | --- | --- |
| 0.61 µM | > 100 µM | > 100 µM | Nc1nc2cc(-c3cccs3)ccc2c2cn(CCNC(=O)c3ccccn3)nc12 [Example 131] | – |
| 0.3 µM | > 100 µM | > 100 µM | Nc1nc2cc(-n3cccn3)ccc2c2cn(CCNC(=O)c3ccccn3)nc12 [Example 133, N-{2-[4-amino-7-(1H-pyrazol-1-yl)-2H-pyrazolo[3,4-c]quinolin-2-yl]ethyl}pyridine-2-carboxamide] | – |
| 0.37 µM | 20 to 100 µM | > 100 µM | COC(=O)NCc1nc2c(N)nc3cc(-c4ccn[nH]4)ccc3c2s1 [Example 134, methyl N-[[4-amino-7-(1H-pyrazol-5-yl)-[1,3]thiazolo[4,5-c]quinolin-2-yl]methyl]carbamate] | – |
| 0.98 µM | > 100 µM | > 100 µM | Nc1nc2cc(-c3ccn[nH]3)ccc2c2sc(CCNC(=O)c3ccccc3)nc12 [Example 135, N-(2-(4-amino-7-(1H-pyrazol-5-yl)thiazolo[4,5-c]quinolin-2-yl)ethyl) benzamide] | – |
| 0.16 µM | 20 to 100 µM | > 100 µM | Nc1nc2cc(-c3ccn[nH]3)ccc2c2sc(CCNC(=O)c3ccccn3)nc12 [Example 136, N-[2-[4-amino-7-(1H-pyrazol-5-yl)-[1,3]thiazolo[4,5-c]quinolin-2-yl]ethyl]pyridine-2-carboxamide] | – |
| 1.67 µM | > 100 µM | > 100 µM | Nc1nc2cc(-c3ccn[nH]3)ccc2c2sc(CCNC(=O)C3CCO3)nc12 (stereo not drawn) [Example 137, N-[2-[4-amino-7-(1H-pyrazol-5-yl)-[1,3]thiazolo[4,5-c]quinolin-2-yl]ethyl]oxetane-2-carboxamide] | – |
| 3.92 µM | > 100 µM | > 100 µM | NCCCc1nc2c(N)nc3cc(-c4ccn[nH]4)ccc3c2s1 [Example 138] | – |
| 7.8 µM | > 100 µM | > 100 µM | CC(=O)NCCCc1nc2c(N)nc3cc(-c4ccn[nH]4)ccc3c2s1 [Example 139, N-[3-[4-amino-7-(1H-pyrazol-5-yl)-[1,3]thiazolo[4,5-c]quinolin-2-yl]propyl]acetamide] | – |
| 1.65 µM | > 100 µM | > 100 µM | CCN(Cc1nc2c(N)nc3cc(-c4ccn[nH]4)ccc3c2s1)C(C)=O [Example 140, N-{[4-amino-7-(1H-pyrazol-3-yl)-[1,3]thiazolo[4,5-c]quinolin-2-yl]methyl}-N-ethylacetamide] | – |
| 6.28 µM | > 100 µM | ≤ 1 µM | Nc1nc2cc(-c3ccn[nH]3)ccc2c2sc(CCCOCc3ccccc3)nc12 [Example 141, 2-[3-(benzyloxy)propyl]-7-(1H-pyrazol-3-yl)-[1,3]thiazolo[4,5-c]quinolin-4-amine] | – |
| 1.5 µM | > 100 µM | 20 to 100 µM | Nc1nc2cc(-c3ccn[nH]3)ccc2c2sc(CCCO)nc12 [Example 142, 3-[4-amino-7-(1H-pyrazol-3-yl)-[1,3]thiazolo[4,5-c]quinolin-2-yl]propan-1-ol] | – |
| 0.4 µM | > 100 µM | > 100 µM | CN(C)Cc1nc2c(N)nc3cc(-c4ccn[nH]4)ccc3c2s1 [Example 143, 2-[(dimethylamino)methyl]-7-(1H-pyrazol-5-yl)-[1,3]thiazolo[4,5-c]quinolin-4-amine] | – |
| 0.66 µM | > 100 µM | > 100 µM | CCN(CC)CCCc1nc2c(N)nc3cc(-c4ccn[nH]4)ccc3c2s1 [Example 144, 2-[3-(diethylamino)propyl]-7-(1H-pyrazol-5-yl)-[1,3]thiazolo[4,5-c]quinolin-4-amine] | – |
| 2.74 µM | > 100 µM | > 100 µM | CN(C)Cc1nc2c(N)nc3cc(-c4ccn[nH]4)ccc3c2o1 [Example 145, 2-[(dimethylamino)methyl]-7-(1H-pyrazol-5-yl)-[1,3]oxazolo[4,5-c]quinolin-4-amine] | – |
| 0.38 µM | > 100 µM | > 100 µM | NCCn1cc2c(N)nc3cc(-c4cc[nH]n4)ccc3c2n1 [Example 149, 2-(2-aminoethyl)-7-(1H-pyrazol-3-yl)-2H-pyrazolo[4,3-c]quinolin-4-amine] | – |
| 0.07 µM | > 100 µM | > 100 µM | Nc1nc2cc(-c3cc[nH]n3)ccc2c2nn(CCNC(=O)c3ccccn3)cc12 [Example 150, N-{2-[4-amino-7-(1H-pyrazol-3-yl)-2H-pyrazolo[4,3-c]quinolin-2-yl]ethyl}pyridine-2-carboxamide] | – |
| 0.06 µM | > 100 µM | > 100 µM | Nc1nc2cc(-c3cc[nH]n3)ccc2c2nn(CCNC(=O)c3csc(Cl)n3)cc12 [Example 151, N-{2-[4-amino-7-(1H-pyrazol-3-yl)-2H-pyrazolo[4,3-c]quinolin-2-yl]ethyl}-2-chloro-1,3-thiazole-4-carboxamide] | – |
| 0.7 µM | > 100 µM | > 100 µM | CN(C)CCc1cc2c(N)nc3cc(-c4ccn[nH]4)ccc3c2[nH]1 [Example 153, 2-[2-(dimethylamino)ethyl]-7-(1H-pyrazol-5-yl)-1H-pyrrolo[3,2-c]quinolin-4-amine] | – |
| 1 µM | > 100 µM | > 100 µM | CCC(=O)NCCc1cc2c(N)nc3cc(-c4ccn[nH]4)ccc3c2[nH]1 [Example 154, N-{2-[4-amino-7-(1H-pyrazol-5-yl)-1H-pyrrolo[3,2-c]quinolin-2-yl]ethyl}propanamide] | – |
| 0.01 µM | > 100 µM | > 100 µM | Nc1nc2cc(-c3ccn[nH]3)ccc2c2[nH]c(CCNC(=O)c3ccccn3)cc12 [Example 155, N-[2-[4-amino-7-(1H-pyrazol-5-yl)-1H-pyrrolo[3,2-c]quinolin-2-yl]ethyl]pyridine-2-carboxamide] | – |

| Compound | EC50 [1, 4] | EC50 [2] | EC50 [3] | EC50 [1, 5] |
| --- | --- | --- | --- | --- |
| Nc1nc2cc(-n3cccn3)ccc2c2cn(CCNC(=O)c3ccccc3)nc12 [Example 132, N-{2-[4-amino-7-(1H-pyrazol-1-yl)-2H-pyrazolo[3,4-c]quinolin-2-yl]ethyl}benzamide] | – | > 100 µM | 20 to 100 µM | 0.34 µM |
| Nc1nc2cc(-c3ccn[nH]3)ccc2c2oc(CCCO)nc12 [Example 147, 3-[4-amino-7-(1H-pyrazol-3-yl)-[1,3]oxazolo[4,5-c]quinolin-2-yl]propan-1-ol] | – | > 100 µM | > 100 µM | 6.09 µM |
